Numbers after ± are expanded uncertainties.
Experiments:
[1] = Crystal; DTA
[2] = Molar enthalpy of transition or fusion; details: Crystal; DSC

With `CC(=O)CCc1ccc(O)cc1` [4-(4-hydroxyphenyl)butan-2-one] the Normal melting temperature [1] was 82 ± 0.6 °C and the “Molar enthalpy of transition or fusion” value [2] was 5.9 ± 0.143 kcal/mol.

— the NIST ThermoML archive (doi:10.1007/s10765-017-2323-6)
